Measured values taken from patent US9593146B2, “CD44v6-derived peptides for treating metastasizing cancer” (AMCURE GMBH, priority 2012, dated 2017).

Legend:
VEGFR-2 = assay: VEGF-A165 induced activation of VEGFR-2 and Erk in endothelial cells; format: cell-based, human; details: HUVEC, HAOEC and HCMEC
Description: FIG. 13: Activation of VEGFR-2 and signal transduction induced by VEGF-A165 depends on CD44v6. Different ECs (HUVEC, HAOEC and HCMEC) were serum starved and incubated with several reagents (αCD44v6, v6 14mer and the controls IgG and ctrl pep). The cells were then induced with VEGF-A165 and lysed. The cell lysates were loaded on SDS-PAGE and subjected to Western blot analysis. Activation of the receptor tyrosine kinase VEGFR-2 and of its downstream target Erk was detected by means of antibodies that detect phosphorylated forms of VEGFR-2 and Erk. The loading control was performed with antibodies recognising total VEGFR-2 and Erk levels. The numbers indicate the fold induction as calculated with the computer programme ImageJ.
In order investigate if an isoform of CD44 is necessary for VEGFR-2 activation, the three tools inhibiting CD44v6 activity were used in an experiment where VEGFR-2 was activated by VEGF-A165. As expected all ECs responded to VEGF-A165 treatment with VEGFR-2 phosphorylation and signal transduction to Erk. […] Thus CD44v6 is also necessary for a functional VEGF-A165/VEGFR-2 system in these cells.

BSp73ASs6 cells = assay: Apoptosis in established lung metastases (cleaved Caspase-3, cleaved Caspase-8), BSp73ASs6 rat model; format: in vivo; details: cleaved caspase-8 staining
Description: 7 μm thick paraffin sections were deparaffinized and rehydrated. For P-Met staining antigen unmasking was achieved by boiling the slides in 1 mM EDTA pH 8.0 followed by incubation for 15 minutes at a sub-boiling temperature, for CD31 staining the sections were treated with Proteinase K (8 μg/ml) for 10 min at 37° C. For immunofluorescence staining of P-Met, unspecific binding was blocked with 5% goat serum (DAKO, Glostrup, Denmark) (diluted in 1×PBS/0.3% Triton X-100) for 60 minutes. In the case of immunohistochemistry, endogenous peroxidases were at first blocked with 3% H2O2 in PBS followed by incubation with biotin blocking system (Dako, Glostrup, Denmark) and then unspecific binding was inhibited by incubation with 5% FCS in PBS. The sections were incubated with the P-Met antibody (D26, dilution 1:50 in 1×PBS/1% BSA/0.3% Triton X-100), Met antibody (C-28, dilution 1:50), GFP antibody (sc-101525, dilution 1:50) or CD31 antibody (5 μg/ml) over night or VFF18 (5 μg/ml) o/n at 4° C. After washing in PBS the sections were incubated with Alexa Fluor R 546 goat anti-rabbit (in case of immunofluorescence P-Met and Met staining, dilution 1:500) or a biotinylated secondary antibody (for immunohistochemical stainings rabbit anti-rat antibody for VFF18 and CD31, goat anti-rabbit for P-Met, cleaved Caspase-3 and cleaved Caspase-8 and rabbit anti-mouse for GFP, dilution 1:500) for 45 minutes. For DAB (3,3′-diaminobenzidine) staining the sections were treated with a streptavidin-peroxidase conjugate (Dako, Glostrup, Denmark) and developed with DAB substrate system (3,3′-diaminobenzidine; Biozol, Eching, Germany). For immunofluorescence DAPI was used for nuclear staining.
One hypothesis for the disappearance of metastases is that the peptides induce apoptosis of CD44v6-expressing metastatic cells in the secondary organs. In order to test this hypothesis, the experiment described above using the BSp73ASs6 cells was repeated. The cells were injected subcutaneously in syngeneic rats and the tumor was allowed to develop for three weeks. After that time the animals were separated in two groups of 10 animals that were injected either with the specific rat CD44v6 peptide or with the control peptide (mouse) every second day. One day following each injection of the peptide, the lungs of one animal were removed and apoptosis was measured using an antibody that detects the cleaved form of Caspase 3. […] Twelve days after injection of the CD44v6 peptide, less apoptosis was observed. […] From these experiments, it is concluded that the CD44v6 peptide induces apoptosis of metastatic cells.

Met = assay: HGF induced activation of Met and Erk in L3.6pl, HeLa and HT29 cells; format: cell-based, human; details: added before induction with HGF
Description: FIG. 14: A: Activation of Met and signal transduction induced by HGF depends on CD44v6 in L3.6pl cells. L3.6pl cells were treated with the human v6 peptide (human v6 14mer) or the rat v6 peptide as control prior to induction with 10 ng/ml HGF. Activation of Met and ERK was determined in western blot. The numbers refer to the fold induction. The experiment was repeated at least 5 times. B: Activation of c-Met and signal transduction induced by HGF depends on CD44v6 HeLa cells. Starved HeLa cells respectively HT29 cells were incubated with the v6 peptide (human v6 14mer) or a control peptide for 10 minutes at 37° C. and then induced with 25 ng/ml of HGF for the indicated time points. Cells were then either lysed and the lysates were subjected to Western Blot analysis for phospho-Met and Met. C: Activation of c-Met and signal transduction induced by HGF depends on CD44v6 in HT29 cells. HGF-induced c-Met and Erk phosphorylation in HT29 was determined as described above using phospho-specific antibodies. […]
The contribution of CD44v6 to Met signaling in the human epithelial pancreatic cancer cells L3.6pl (derived from Colo 357), the cervix carcinoma cells HeLa and the colon cancer cells HT29 were analysed using the CD44v6 peptide (v6 14mer; v6 5mer tested as well, data not shown).

KEQWFGNRWHEGYR [human 14mer, human CD44v6 14mer peptide]
VEGFR-2 activation and downstream signaling to Erk induced by VEGF-A165 (VEGFR-2): blocked VEGFR-2 activation and downstream signaling to Erk | activation of caspase-8 in lung metastases (BSp73ASs6 cells): A kinetic of activation of caspase-8 similar to the one obtained for caspase-3 | activation of Met and of its downstream target Erk (Met): able to prevent activation of Met and of its downstream target Erk
